This passage reports IC50 results from BindingDB's records for PubMed 35063731 (Chinese Academy of Sciences, 2022).

Experiment [1] addresses T1, Maltase-glucoamylase (Homo sapiens, UniProt O43451). In words: Inhibition of alpha-glucosidase (unknown origin).
In experiment [2] the target is T1, Maltase-glucoamylase. As to the kind of experiment: Inhibition of alpha-Glucosidase (unknown origin) using pNPG as substrate incubated for 20 mins by micro plate reader analysis.
The nature of experiment [3]: Inhibition of influenza A virus Neuraminidase using 2-(4-methylumbelliferyl)-a-D-acetylneuraminic acid as substrate incubated for 30 mins by fluorescence based analysis.

T1 sequence (O43451 whole entry): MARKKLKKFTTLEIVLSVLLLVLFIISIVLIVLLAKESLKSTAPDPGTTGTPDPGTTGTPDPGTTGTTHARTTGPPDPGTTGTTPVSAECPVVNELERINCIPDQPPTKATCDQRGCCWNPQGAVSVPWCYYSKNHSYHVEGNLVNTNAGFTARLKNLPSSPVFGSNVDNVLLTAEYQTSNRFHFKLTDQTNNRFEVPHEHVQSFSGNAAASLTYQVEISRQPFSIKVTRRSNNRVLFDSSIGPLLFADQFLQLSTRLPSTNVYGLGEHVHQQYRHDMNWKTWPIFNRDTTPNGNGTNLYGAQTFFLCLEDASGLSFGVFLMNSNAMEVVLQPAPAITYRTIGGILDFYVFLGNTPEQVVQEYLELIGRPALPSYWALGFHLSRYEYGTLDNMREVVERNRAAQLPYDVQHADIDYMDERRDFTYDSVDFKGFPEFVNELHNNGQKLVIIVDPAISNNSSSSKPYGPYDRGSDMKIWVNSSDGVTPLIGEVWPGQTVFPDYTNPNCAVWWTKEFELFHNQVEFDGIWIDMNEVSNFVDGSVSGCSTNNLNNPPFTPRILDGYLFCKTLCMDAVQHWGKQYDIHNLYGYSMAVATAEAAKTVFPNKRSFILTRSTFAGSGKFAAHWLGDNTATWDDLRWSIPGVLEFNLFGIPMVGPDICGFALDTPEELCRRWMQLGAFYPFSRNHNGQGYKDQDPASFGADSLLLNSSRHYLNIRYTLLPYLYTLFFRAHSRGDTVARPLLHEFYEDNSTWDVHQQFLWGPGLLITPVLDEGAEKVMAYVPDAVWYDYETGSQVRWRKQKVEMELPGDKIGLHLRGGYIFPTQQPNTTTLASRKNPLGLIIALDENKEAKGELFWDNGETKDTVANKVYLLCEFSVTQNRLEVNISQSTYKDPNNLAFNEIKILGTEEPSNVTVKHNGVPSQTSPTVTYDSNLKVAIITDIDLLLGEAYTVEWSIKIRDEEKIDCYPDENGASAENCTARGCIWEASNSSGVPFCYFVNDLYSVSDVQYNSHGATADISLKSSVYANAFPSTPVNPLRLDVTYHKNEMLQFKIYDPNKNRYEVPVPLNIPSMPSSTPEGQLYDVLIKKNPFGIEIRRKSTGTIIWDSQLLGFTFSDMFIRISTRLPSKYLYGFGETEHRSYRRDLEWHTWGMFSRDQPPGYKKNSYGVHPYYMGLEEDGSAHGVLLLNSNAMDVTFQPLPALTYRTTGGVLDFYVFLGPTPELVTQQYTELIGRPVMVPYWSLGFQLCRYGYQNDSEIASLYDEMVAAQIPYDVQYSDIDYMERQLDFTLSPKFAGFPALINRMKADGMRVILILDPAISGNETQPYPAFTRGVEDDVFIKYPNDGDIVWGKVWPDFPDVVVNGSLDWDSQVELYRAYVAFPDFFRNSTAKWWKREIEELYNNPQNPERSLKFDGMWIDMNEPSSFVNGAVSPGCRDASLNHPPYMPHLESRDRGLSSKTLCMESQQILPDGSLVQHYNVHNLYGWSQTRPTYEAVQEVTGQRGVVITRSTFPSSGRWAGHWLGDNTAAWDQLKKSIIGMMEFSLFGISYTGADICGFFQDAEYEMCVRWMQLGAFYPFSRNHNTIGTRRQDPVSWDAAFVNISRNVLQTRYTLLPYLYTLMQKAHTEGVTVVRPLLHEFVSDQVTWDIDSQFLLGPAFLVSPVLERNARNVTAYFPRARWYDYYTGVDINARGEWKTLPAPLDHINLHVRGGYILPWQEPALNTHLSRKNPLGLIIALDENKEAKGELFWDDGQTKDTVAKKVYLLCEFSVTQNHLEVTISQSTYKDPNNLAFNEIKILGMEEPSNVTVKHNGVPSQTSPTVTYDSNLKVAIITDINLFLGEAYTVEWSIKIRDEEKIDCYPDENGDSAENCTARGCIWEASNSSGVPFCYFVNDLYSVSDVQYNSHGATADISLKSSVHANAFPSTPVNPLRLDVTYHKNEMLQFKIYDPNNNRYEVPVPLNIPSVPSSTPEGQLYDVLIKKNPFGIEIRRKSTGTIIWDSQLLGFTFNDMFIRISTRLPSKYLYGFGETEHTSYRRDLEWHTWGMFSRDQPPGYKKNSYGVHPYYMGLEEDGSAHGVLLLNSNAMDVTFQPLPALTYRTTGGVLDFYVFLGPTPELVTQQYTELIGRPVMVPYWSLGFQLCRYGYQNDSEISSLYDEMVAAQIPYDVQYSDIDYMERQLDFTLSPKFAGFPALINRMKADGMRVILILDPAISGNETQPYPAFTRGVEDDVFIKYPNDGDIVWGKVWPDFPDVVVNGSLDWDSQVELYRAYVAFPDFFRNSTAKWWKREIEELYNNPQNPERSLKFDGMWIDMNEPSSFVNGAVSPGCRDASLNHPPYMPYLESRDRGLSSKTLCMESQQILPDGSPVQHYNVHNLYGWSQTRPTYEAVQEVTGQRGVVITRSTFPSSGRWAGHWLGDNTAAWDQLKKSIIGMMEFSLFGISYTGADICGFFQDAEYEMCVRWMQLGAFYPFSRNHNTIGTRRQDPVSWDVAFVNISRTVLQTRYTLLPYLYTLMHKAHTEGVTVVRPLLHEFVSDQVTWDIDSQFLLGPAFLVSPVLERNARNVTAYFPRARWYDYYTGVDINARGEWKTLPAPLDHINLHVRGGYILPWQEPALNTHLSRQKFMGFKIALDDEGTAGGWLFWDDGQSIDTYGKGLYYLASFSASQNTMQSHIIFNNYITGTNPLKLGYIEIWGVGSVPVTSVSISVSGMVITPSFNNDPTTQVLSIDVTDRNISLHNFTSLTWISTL

The term IC50 denotes the concentration that gives 50% inhibition. Molecule `CC(C)=CCc1cc(C[C@@]2(C(=O)O)OC(=O)C(OC(C)(C)[C@@H](O)Cc3cc(C[C@@]4(C(=O)O)OC(=O)C(O)=C4c4ccc(O)cc4)ccc3O)=C2c2ccc(O)cc2)ccc1O` yielded an IC50 in experiment [1] of 10.5 µM.
The molecule `COc1cc2c(c(O)c1CO)C(=O)OC[C@@H]2O` had an IC50 in experiment [2] of 1410 µM.
Molecule `COC(=O)[C@@]1(C(=O)C(C)=O)C(C)=C(C)C=C2[C@]3(C=O)CC[C@H](OC(C)=O)C(C)(C)[C@H]3CC[C@@]21C` displayed an IC50 in experiment [3] of 0.0081 µM.
